{"source": "patent EP3723746B1", "about": "“PHENOXY ACIDS FOR THE TREATMENT OF NEUROMUSCULAR DISORDERS” (NMD Pharma A/S, priority 2017, dated 2019)", "biological_target": "T1, human CIC-1 channels (Homo sapiens, UniProt P35523)", "T1 construct": "host or cells: CHO cells constitutively expressing human ClC-1", "T1 sequence (P35523 whole entry, canonical isoform)": "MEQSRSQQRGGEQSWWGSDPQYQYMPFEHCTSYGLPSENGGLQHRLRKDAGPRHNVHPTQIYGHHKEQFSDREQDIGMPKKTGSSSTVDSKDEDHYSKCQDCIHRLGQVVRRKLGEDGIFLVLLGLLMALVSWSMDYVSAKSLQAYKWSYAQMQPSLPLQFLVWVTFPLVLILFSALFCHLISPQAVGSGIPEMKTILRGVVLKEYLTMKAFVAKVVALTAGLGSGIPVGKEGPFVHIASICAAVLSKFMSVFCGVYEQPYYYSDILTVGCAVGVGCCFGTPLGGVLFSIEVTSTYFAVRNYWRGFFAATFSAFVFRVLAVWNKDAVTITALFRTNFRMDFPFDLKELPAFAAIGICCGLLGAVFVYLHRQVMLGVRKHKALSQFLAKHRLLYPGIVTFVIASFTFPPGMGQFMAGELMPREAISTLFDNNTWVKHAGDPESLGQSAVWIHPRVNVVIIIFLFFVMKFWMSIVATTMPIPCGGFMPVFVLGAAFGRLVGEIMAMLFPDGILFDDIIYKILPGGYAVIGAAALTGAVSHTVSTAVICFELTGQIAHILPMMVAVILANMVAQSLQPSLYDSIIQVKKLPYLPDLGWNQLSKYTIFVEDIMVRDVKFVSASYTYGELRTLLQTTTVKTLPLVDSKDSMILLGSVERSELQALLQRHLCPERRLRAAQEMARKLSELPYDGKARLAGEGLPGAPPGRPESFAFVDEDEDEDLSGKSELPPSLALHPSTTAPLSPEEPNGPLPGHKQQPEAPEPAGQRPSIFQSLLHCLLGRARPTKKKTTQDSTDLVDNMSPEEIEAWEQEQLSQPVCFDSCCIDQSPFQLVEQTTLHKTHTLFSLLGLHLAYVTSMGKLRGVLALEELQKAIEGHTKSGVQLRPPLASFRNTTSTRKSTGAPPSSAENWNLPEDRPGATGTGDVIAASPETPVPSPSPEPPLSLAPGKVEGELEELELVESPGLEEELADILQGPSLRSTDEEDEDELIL", "assay": "Automated patch-clamp on the human isoform of CIC-1 expressed in CHO cells", "type": "cell-based", "conditions": "compound added intracellularly vs control cell patches; positive shift reflects CIC-1 inhibition", "experimental": "The investigatory goal of these experiments was to evaluate how compounds affect the open probability and current amplitude of human CIC-1 channels expressed in CHO cells. Experiments were performed using an automated patch clamp system that allowed high throughput testing of whole cell patches together with both intracellular and extracellular addition of compound.\nAutomated whole cell patch clamp experiments were performed with the Qpatch 16 system (Sophion Bioscience, Ballerup, Denmark) at room temperature. Data acquisition and analysis were performed in the Qassay software (ver. 5.6, Odense).\nTo evoke CIC-1 currents in whole cell patches, the membrane potential was initially stepped from a holding potential of -30 mV to +60 mV for 100 ms and then to various test voltages (sweeps) ranging from +120 mV to -140 mV in steps of 20 mV for 300 ms. To obtain tail currents, the membrane potential was stepped to -100 mV after each test voltage for 300 ms and then relaxed to -30 mV for 2 sec between sweeps (Figure 3). I/V relationships for whole cell instant and steady state current amplitudes were obtained by plotting average current densities at the beginning and at the end of the 300 ms step against the membrane potential (Figure 4).\nIn order to determine the relative overall open probability (P0), the instantaneous tail currents were normalized to the maximal tail current obtained following the most positive voltage step and plotted against the test voltage. Plots of normalized tail currents from each whole cell patch were then fitted to a Boltzmann function allowing determination of half activation voltages (V1/2, Figure 5).\nFor automated patch clamp experiments extracellular solutions contained: 2 mM CaCl2, 1 mM MgCl2, 10 mM HEPES, 4 mM KCI, 145 mM NaCl, 10 mM Glucose, pH adjusted to 7.4 with NaOH (2 M). Osmolality adjusted to ~320 using sucrose.\nIntracellular solutions contained: 80 mM CsF, 60 mM CsCI, 5/1 mM KOH/EGTA, 10 mM HEPES, 10 mM NaCl, pH adjusted to 7.2 with NaOH (2 M). Osmolality adjusted to ~320 mOsm using sucrose.\nCells used in patch clamp experiments were Chinese hamster ovary cells (CHO) constitutively expressing human CIC-1 channels. The amino acid sequence encoded by the cDNA used to create this cell line was identical to the translated sequence for GenBank accession number NM_000083.2. Cells were produced by Charles River (Catalogue CT6175, Cleveland OH, USA) in a cryopreserved format. Experiments were performed on the cells directly after thawing (3 × 10^6 cells used in each experiment).\nTo evaluate the compound effect on CIC-1, when applied directly to the intracellular side of the cell membrane, the half activation voltage, V1/2, was determined from whole cell patches with compound added to the intracellular solution and then compared to V1/2 determined from control cell patches with only vehicle added to the intracellular solution. Additionally, the effect of extracellular added compound was evaluated by determine V1/2 and steady state current amplitudes before and after exchanging the extracellular solution to contain compound.\nThe difference in half activation voltage of CIC-1 channels, ΔV1/2, was determined as the difference between the cell patches treated intracellularly with compound and control cells patches and is reported in Table 4 below. A positive shift in ΔV1/2 is reflecting CIC-1 channel inhibition by the tested compound. P-values of <0.05 is considered significant. […]", "data": [{"smiles": "C#Cc1cc(Br)ccc1O[C@@H](C)C(=O)O", "note": "[Compound A-19, (2S)-2-(4-bromo-2-ethynylphenoxy)propanoic acid]", "values": [{"measurement": "ΔV1/2", "result": 7.7, "unit": "mV"}]}]}
